According to the NIST ThermoML archive (doi:10.1021/je900732r):

Assay: mn = molality of the nth substance listed, in mol/kg
Conditions: 101 kPa, Liquid; for speed of sound: Pulse-echo method

[Co+2].[O-][Cl+3]([O-])([O-])[O-].[O-][Cl+3]([O-])([O-])[O-] [cobalt(II) perchlorate] + C[S+](C)[O-]
mass density [kg/m3]
Conditions | 293.15 K | 298.15 K | 303.15 K | 313.15 K | 323.15 K | 333.15 K
m1 = 0.01481 | 1103.37 | 1098.35 | 1093.34 | 1083.31 | 1073.29 | 1063.26
m1 = 0.0215 | 1104.79 | 1099.78 | 1094.77 | 1084.75 | 1074.74 | 1064.73
m1 = 0.03236 | 1107.1 | 1102.1 | 1097.1 | 1087.09 | 1077.1 | 1067.1
m1 = 0.04309 | 1109.4 | 1104.4 | 1099.41 | 1089.42 | 1079.44 | 1069.46
m1 = 0.05528 | 1112.02 | 1107.03 | 1102.04 | 1092.06 | 1082.1 | 1072.14
m1 = 0.06505 | 1114.13 | 1109.14 | 1104.15 | 1094.2 | 1084.25 | 1074.3
m1 = 0.08726 | 1118.94 | 1113.97 | 1109 | 1099.07 | 1089.15 | 1079.22
m1 = 0.1069 | 1123.24 | 1118.27 | 1113.31 | 1103.39 | 1093.51 | 1083.61
m1 = 0.1285 | 1127.98 | 1123.03 | 1118.08 | 1108.19 | 1098.33 | 1088.47
m1 = 0.148 | 1132.32 | 1127.38 | 1122.44 | 1112.57 | 1102.73 | 1092.9
m1 = 0.1695 | 1137.12 | 1132.18 | 1127.26 | 1117.42 | 1107.6 | 1097.8
m1 = 0.1911 | 1141.97 | 1137.05 | 1132.14 | 1122.33 | 1112.53 | 1102.76
m1 = 0.2111 | 1146.48 | 1141.57 | 1136.67 | 1126.88 | 1117.12 | 1107.38

O=S(=O)([O-])C(F)(F)F.O=S(=O)([O-])C(F)(F)F.[Cu+2] [copper(II) trifluoromethanesulfonate] + CO
Conditions | mass density, 283.15 K [kg/m3] | mass density, 288.15 K [kg/m3] | mass density, 293.15 K [kg/m3] | mass density, 298.15 K [kg/m3] | mass density, 303.15 K [kg/m3] | mass density, 308.15 K [kg/m3] | mass density, 313.15 K [kg/m3] | speed of sound, 298.15 K [m/s]
m1 = 0.1213 | 829.484 | 824.791 | 820.094 | 815.38 | 810.649 | 805.885 | 801.107 | 1106
m1 = 0.1418 | 834.535 | 829.841 | 825.141 | 820.428 | 815.692 | 810.942 | 806.159 | 1106.6
m1 = 0.1772 | 843.312 | 838.612 | 833.908 | 829.19 | 824.45 | 819.682 | 814.901 | 1107.4
m1 = 0.2047 | 850.214 | 845.512 | 840.803 | 836.081 | 831.338 | 826.565 | 821.777 | 1108.2
m1 = 0.231 | 856.972 | 852.265 | 847.554 | 842.828 | 838.081 | 833.302 | 828.513 | 1109.1
m1 = 0.2571 | 863.707 | 858.996 | 854.279 | 849.545 | 844.805 | 840.033 | 835.231 | 1109.7
m1 = 0.2847 | 871.006 | 866.292 | 861.57 | 856.839 | 852.088 | 847.311 | 842.504 | 1110.5

[Mn+2].[O-][Cl+3]([O-])([O-])[O-].[O-][Cl+3]([O-])([O-])[O-] [manganese (II) perchlorate] + C[S+](C)[O-]
mass density [kg/m3]
Conditions | 293.15 K | 298.15 K | 303.15 K | 313.15 K | 323.15 K | 333.15 K
m1 = 0.01626 | 1103.52 | 1098.5 | 1093.49 | 1083.46 | 1073.44 | 1063.42
m1 = 0.0211 | 1104.5 | 1099.48 | 1094.47 | 1084.45 | 1074.44 | 1064.43
m1 = 0.02843 | 1105.99 | 1100.98 | 1095.97 | 1085.96 | 1075.96 | 1065.96
m1 = 0.037 | 1107.74 | 1102.73 | 1097.73 | 1087.73 | 1077.74 | 1067.75
m1 = 0.04758 | 1109.9 | 1104.9 | 1099.91 | 1089.92 | 1079.94 | 1069.97
m1 = 0.05763 | 1111.96 | 1106.97 | 1101.98 | 1092.01 | 1082.05 | 1072.09
m1 = 0.07358 | 1115.24 | 1110.26 | 1105.28 | 1095.33 | 1085.39 | 1075.45
m1 = 0.09456 | 1119.59 | 1114.62 | 1109.65 | 1099.73 | 1089.82 | 1079.91
m1 = 0.1139 | 1123.62 | 1118.65 | 1113.7 | 1103.8 | 1093.92 | 1084.04
m1 = 0.1337 | 1127.77 | 1122.82 | 1117.87 | 1108 | 1098.14 | 1088.29
m1 = 0.1569 | 1132.59 | 1127.65 | 1122.73 | 1112.88 | 1103.06 | 1093.24
m1 = 0.1754 | 1136.6 | 1131.67 | 1126.75 | 1116.94 | 1107.13 | 1097.34

[Cu+2].[O-][Cl+3]([O-])([O-])[O-].[O-][Cl+3]([O-])([O-])[O-] [copper perchlorate] + C[S+](C)[O-]
mass density [kg/m3]
Conditions | 293.15 K | 298.15 K | 303.15 K | 313.15 K | 323.15 K | 333.15 K
m1 = 0.01424 | 1103.32 | 1098.31 | 1093.29 | 1083.26 | 1073.23 | 1063.21
m1 = 0.01956 | 1104.48 | 1099.47 | 1094.46 | 1084.44 | 1074.42 | 1064.4
m1 = 0.02779 | 1106.27 | 1101.26 | 1096.26 | 1086.25 | 1076.24 | 1066.24
m1 = 0.03497 | 1107.84 | 1102.83 | 1097.83 | 1087.83 | 1077.83 | 1067.84
m1 = 0.0419 | 1109.35 | 1104.35 | 1099.36 | 1089.37 | 1079.36 | 1069.38
m1 = 0.05636 | 1112.53 | 1107.54 | 1102.54 | 1092.57 | 1082.6 | 1072.64
m1 = 0.07067 | 1115.69 | 1110.7 | 1105.71 | 1095.76 | 1085.8 | 1075.85
m1 = 0.08366 | 1118.57 | 1113.58 | 1108.61 | 1098.65 | 1088.72 | 1078.79
m1 = 0.09783 | 1121.71 | 1116.73 | 1111.75 | 1101.83 | 1091.91 | 1082
m1 = 0.1114 | 1124.76 | 1119.78 | 1114.82 | 1104.9 | 1095 | 1085.1
m1 = 0.1251 | 1127.83 | 1122.85 | 1117.89 | 1108 | 1098.11 | 1088.23
m1 = 0.1384 | 1130.82 | 1125.85 | 1120.9 | 1111.02 | 1101.14 | 1091.28

C[S+](C)[O-] [dimethyl sulfoxide] + [Mn+2].[O-][Cl+3]([O-])([O-])[O-].[O-][Cl+3]([O-])([O-])[O-]
m2 = 0
Conditions | mass density [kg/m3]
293.15 K | 1100.22
298.15 K | 1095.19
303.15 K | 1090.17
313.15 K | 1080.12
323.15 K | 1070.08
333.15 K | 1060.04

CO [methanol] + O=S(=O)([O-])C(F)(F)F.O=S(=O)([O-])C(F)(F)F.[Cu+2]
m2 = 0
Conditions | mass density [kg/m3]
283.15 K | 800.548
288.15 K | 795.857
293.15 K | 791.162
298.15 K | 786.452
303.15 K | 781.722
308.15 K | 776.978
313.15 K | 772.2
